The first assay addresses Prothrombin (Homo sapiens, UniProt P00734). Kind of assay: Inhibition of factor 2a.
Chain of Coagulation factor X (P00742 41-179 limits assumed): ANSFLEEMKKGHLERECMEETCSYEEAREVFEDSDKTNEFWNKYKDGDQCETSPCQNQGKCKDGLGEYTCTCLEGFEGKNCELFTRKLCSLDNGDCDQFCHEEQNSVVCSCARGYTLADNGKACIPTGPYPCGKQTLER
Chain of Coagulation factor X (P00742 235-488 limits assumed): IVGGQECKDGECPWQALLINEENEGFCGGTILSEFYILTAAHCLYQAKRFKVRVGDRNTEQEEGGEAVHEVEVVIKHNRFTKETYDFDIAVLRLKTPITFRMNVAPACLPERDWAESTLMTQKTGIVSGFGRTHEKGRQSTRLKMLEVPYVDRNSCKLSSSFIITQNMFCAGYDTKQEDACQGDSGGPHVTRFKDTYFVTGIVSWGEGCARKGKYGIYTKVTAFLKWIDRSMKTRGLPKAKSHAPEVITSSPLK
By IC50 is commonly meant the concentration that inhibits the measured activity by half. Higher therefore signals lower potency. On to `N=C(N)c1ccc(CNC(=O)Cn2c(-c3cccc(N)c3)c(Cl)nc(NC3CCC3)c2=O)cc1O`, for which the IC50 is greater than 100 µM.
Same read-out and setting: for `N=C(N)c1ccc(CNC(=O)Cn2c(-c3cccc(N)c3)c(Cl)nc(NC3CCC3)c2=O)c(C(F)(F)F)c1` the value was greater than 30 µM; for `N=C(N)c1c(O)c(F)c(CNC(=O)Cn2c(-c3cccc(N)c3)c(Cl)nc(NC3CCC3)c2=O)c(F)c1F`, greater than 100 µM.
Still for that read-out and setting: for `N=C(N)c1c(F)c(F)c(CNC(=O)Cn2c(-c3cccc(N)c3)c(Cl)nc(NC3CCC3)c2=O)c(F)c1F` the value was greater than 100 µM.
For `N/N=C(/N)c1ccc(CNC(=O)Cn2c(-c3cccc(N)c3)c(Cl)nc(NC3CCC3)c2=O)cc1`, the IC50 is greater than 100 µM.
The same measure, in the same setting: to `Nc1cccc(-c2c(Cl)nc(NC3CCC3)c(=O)n2CC(=O)NCc2ccc3c(N)noc3c2)c1` belongs greater than 30 µM; to `N=c1[nH][nH]c(=O)c2cc(CNC(=O)Cn3c(-c4cccc(N)c4)c(Cl)nc(NC4CCC4)c3=O)ccc12`, greater than 30 µM; to `Nc1cccc(-c2c(Cl)nc(NC3CCC3)c(=O)n2CC(=O)NCc2ccc3c(N)nccc3c2)c1`, greater than 30 µM.
Same read-out and setting: to `Nc1cccc(-c2c(Cl)nc(NC3CCC3)c(=O)n2CC(=O)NCCc2cnc[nH]2)c1` belongs greater than 30 µM.
For the compound `Nc1cccc(-c2c(Cl)nc(NC3CCC3)c(=O)n2CC(=O)NCCc2cnc(N)[nH]2)c1`, the 50% inhibitory concentration (IC50) is greater than 30 µM.
`NC1=NCCSc2cc(CNC(=O)Cn3c(-c4cccc(N)c4)c(Cl)nc(NC4CCC4)c3=O)ccc21`: the IC50 was greater than 30 µM.
Still for that read-out and setting: for `Nc1cccc(-c2c(Cl)nc(NC3CCC3)c(=O)n2CC(=O)NCc2ccnc(N)n2)c1` the value was greater than 30 µM.
Take `N=C(N)c1ccc(S(=O)(=O)NCCn2c(-c3cccc(N)c3)c(Cl)nc(NC3CCC3)c2=O)cc1`: the IC50 was greater than 30 µM.
`Nc1cccc(-c2c(Cl)nc(NC3CCC3)c(=O)n2CC(=O)NCc2ccccc2)c1` returned a concentration for half-maximal inhibition (IC50) of 10.6 µM. That is a double-digit micromolar value.
Same read-out and setting: to `N=C(N)c1ccc(CNC(=O)Cn2c(-c3cccc(N)c3)c(Cl)nc(NC3CCC3)c2=O)cc1F` belongs greater than 30 µM.

The target of a further assay is Trypsin (Homo sapiens, UniProt P07477+P07478+P35030). Nature of the assay: Inhibition of trypsin. Format: protein assay.
The compound `N=C(N)c1ccc(CNC(=O)Cn2c(-c3cccc(N)c3)c(Cl)nc(NC3CCC3)c2=O)cc1O` gave a 50% inhibitory concentration (IC50) of 7.55 µM.
Still for that read-out and setting: to `N=C(N)c1ccc(CNC(=O)Cn2c(-c3cccc(N)c3)c(Cl)nc(NC3CCC3)c2=O)c(C(F)(F)F)c1` belongs 0.23 µM.
In turn, `Nc1cccc(-c2c(Cl)nc(NC3CCC3)c(=O)n2CC(=O)NCc2ccc3c(N)noc3c2)c1` showed an IC50 greater than 30 µM.
On to `Nc1cccc(-c2c(Cl)nc(NC3CCC3)c(=O)n2CC(=O)NCc2ccc3c(N)nccc3c2)c1`, for which the IC50 is greater than 30 µM.
The same measure, in the same setting: for `Nc1cccc(-c2c(Cl)nc(NC3CCC3)c(=O)n2CC(=O)NCCc2cnc[nH]2)c1` the value was greater than 30 µM; for `Nc1cccc(-c2c(Cl)nc(NC3CCC3)c(=O)n2CC(=O)NCCc2cnc(N)[nH]2)c1`, 6.2 µM; for `NC1=NCCSc2cc(CNC(=O)Cn3c(-c4cccc(N)c4)c(Cl)nc(NC4CCC4)c3=O)ccc21`, greater than 30 µM.
Turning to `N=C(N)c1ccc(S(=O)(=O)NCCn2c(-c3cccc(N)c3)c(Cl)nc(NC3CCC3)c2=O)cc1`, the half-maximal inhibitory concentration (IC50) worked out at 9.1 µM.
Still for that read-out and setting: to `N=C(N)c1ccc(CNC(=O)Cn2c(-c3cccc(N)c3)c(Cl)nc(NC3CCC3)c2=O)c(F)c1` belongs greater than 30 µM.

Another assay concerns the target Coagulation factor X (Homo sapiens, UniProt P00742). Kind of assay: Inhibition of factor 10a.
Take `N=C(N)c1ccc(CNC(=O)Cn2c(-c3cccc(N)c3)c(Cl)nc(NC3CCC3)c2=O)cc1O`: the concentration for half-maximal inhibition (IC50) is greater than 100 µM.
The same measure, in the same setting: for `N=C(N)c1ccc(CNC(=O)Cn2c(-c3cccc(N)c3)c(Cl)nc(NC3CCC3)c2=O)c(C(F)(F)F)c1` the value was greater than 30 µM.
On the same count and under the same terms, to `N=C(N)c1c(O)c(F)c(CNC(=O)Cn2c(-c3cccc(N)c3)c(Cl)nc(NC3CCC3)c2=O)c(F)c1F` belongs greater than 100 µM.
Same read-out and setting: to `N=C(N)c1c(F)c(F)c(CNC(=O)Cn2c(-c3cccc(N)c3)c(Cl)nc(NC3CCC3)c2=O)c(F)c1F` belongs greater than 30 µM.
As to `N/N=C(/N)c1ccc(CNC(=O)Cn2c(-c3cccc(N)c3)c(Cl)nc(NC3CCC3)c2=O)cc1`, the IC50 was greater than 100 µM.
Same read-out and setting: to `Nc1cccc(-c2c(Cl)nc(NC3CCC3)c(=O)n2CC(=O)NCc2ccc3c(N)noc3c2)c1` belongs greater than 30 µM; to `N=C(N)c1ccc(C(=O)NCCn2c(-c3cccc(N)c3)c(Cl)nc(NC3CCC3)c2=O)cc1`, greater than 30 µM; to `Nc1cccc(-c2c(Cl)nc(NC3CCC3)c(=O)n2CC(=O)NCc2ccc3c(N)nsc3c2)c1`, greater than 30 µM.
Compound `N=c1[nH][nH]c(=O)c2cc(CNC(=O)Cn3c(-c4cccc(N)c4)c(Cl)nc(NC4CCC4)c3=O)ccc12` showed a 50% inhibitory concentration (IC50) greater than 30 µM.
Still for that read-out and setting: to `Nc1cccc(-c2c(Cl)nc(NC3CCC3)c(=O)n2CC(=O)NCc2ccc3c(N)nccc3c2)c1` belongs greater than 30 µM; to `Nc1cccc(-c2c(Cl)nc(NC3CCC3)c(=O)n2CC(=O)NCCc2cnc[nH]2)c1`, greater than 30 µM.
Turning to `Nc1cccc(-c2c(Cl)nc(NC3CCC3)c(=O)n2CC(=O)NCCc2cnc(N)[nH]2)c1`, the half-inhibitory concentration (IC50) was greater than 30 µM.
Still for that read-out and setting: to `NC1=NCCSc2cc(CNC(=O)Cn3c(-c4cccc(N)c4)c(Cl)nc(NC4CCC4)c3=O)ccc21` belongs greater than 30 µM.
In the case of `Nc1cccc(-c2c(Cl)nc(NC3CCC3)c(=O)n2CC(=O)NCc2ccnc(N)n2)c1`, the IC50 was greater than 30 µM.
In turn, `N=C(N)c1ccc(S(=O)(=O)NCCn2c(-c3cccc(N)c3)c(Cl)nc(NC3CCC3)c2=O)cc1` showed an IC50 greater than 30 µM.
Same read-out and setting: for `Nc1cccc(-c2c(Cl)nc(NC3CCC3)c(=O)n2CC(=O)NCc2ccccc2)c1` the value was 0.04 µM; for `N=C(N)c1ccc(CNC(=O)Cn2c(-c3cccc(N)c3)c(Cl)nc(NC3CCC3)c2=O)c(F)c1`, 0.05 µM.
On the same count and under the same terms, for `N=C(N)c1ccc(CNC(=O)Cn2c(-c3cccc(N)c3)c(Cl)nc(NC3CCC3)c2=O)cc1F` the value was greater than 30 µM.

In the next assay the target is T1, Coagulation factor VII (Homo sapiens, UniProt P08709).
T1 sequence (P08709 whole entry): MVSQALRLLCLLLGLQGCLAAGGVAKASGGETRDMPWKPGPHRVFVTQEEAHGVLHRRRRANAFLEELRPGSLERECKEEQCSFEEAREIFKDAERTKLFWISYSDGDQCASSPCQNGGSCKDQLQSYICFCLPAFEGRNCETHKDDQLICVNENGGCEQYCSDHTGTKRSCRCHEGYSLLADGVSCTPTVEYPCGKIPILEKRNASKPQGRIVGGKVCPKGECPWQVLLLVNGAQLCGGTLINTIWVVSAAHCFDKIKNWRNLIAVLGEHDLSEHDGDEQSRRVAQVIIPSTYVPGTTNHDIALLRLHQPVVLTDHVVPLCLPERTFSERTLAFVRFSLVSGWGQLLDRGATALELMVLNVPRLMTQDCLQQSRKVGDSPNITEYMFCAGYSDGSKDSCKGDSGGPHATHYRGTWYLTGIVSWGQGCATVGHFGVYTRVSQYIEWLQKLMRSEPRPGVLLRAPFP
Nature of the assay: Inhibition of factor 7a.
Take `N=C(N)c1ccc(CNC(=O)Cn2c(-c3cccc(N)c3)c(Cl)nc(NC3CCC3)c2=O)cc1O`: the IC50 worked out at 0.19 µM.
`N=C(N)c1ccc(CNC(=O)Cn2c(-c3cccc(N)c3)c(Cl)nc(NC3CCC3)c2=O)c(C(F)(F)F)c1` came in with an IC50 of 0.79 µM.
In turn, `N=C(N)c1c(O)c(F)c(CNC(=O)Cn2c(-c3cccc(N)c3)c(Cl)nc(NC3CCC3)c2=O)c(F)c1F` came in with an IC50 of 0.11 µM.
Still for that read-out and setting: to `N=C(N)c1c(F)c(F)c(CNC(=O)Cn2c(-c3cccc(N)c3)c(Cl)nc(NC3CCC3)c2=O)c(F)c1F` belongs 5.48 µM; to `N=c1[nH][nH]c(=O)c2cc(CNC(=O)Cn3c(-c4cccc(N)c4)c(Cl)nc(NC4CCC4)c3=O)ccc12`, greater than 30 µM.
`Nc1cccc(-c2c(Cl)nc(NC3CCC3)c(=O)n2CC(=O)NCc2ccc3c(N)nccc3c2)c1` showed an IC50 greater than 30 µM.
Take `Nc1cccc(-c2c(Cl)nc(NC3CCC3)c(=O)n2CC(=O)NCCc2cnc[nH]2)c1`: the IC50 was greater than 30 µM.
The same measure, in the same setting: to `Nc1cccc(-c2c(Cl)nc(NC3CCC3)c(=O)n2CC(=O)NCCc2cnc(N)[nH]2)c1` belongs greater than 30 µM; to `NC1=NCCSc2cc(CNC(=O)Cn3c(-c4cccc(N)c4)c(Cl)nc(NC4CCC4)c3=O)ccc21`, greater than 30 µM; to `Nc1cccc(-c2c(Cl)nc(NC3CCC3)c(=O)n2CC(=O)NCc2ccnc(N)n2)c1`, greater than 30 µM.
Same read-out and setting: to `N=C(N)c1ccc(S(=O)(=O)NCCn2c(-c3cccc(N)c3)c(Cl)nc(NC3CCC3)c2=O)cc1` belongs 30 µM; to `Nc1cccc(-c2c(Cl)nc(NC3CCC3)c(=O)n2CC(=O)NCc2ccccc2)c1`, 0.02 µM.
Regarding `N=C(N)c1ccc(CNC(=O)Cn2c(-c3cccc(N)c3)c(Cl)nc(NC3CCC3)c2=O)c(F)c1`, the IC50 was determined as 0.04 µM.
